In US7101878B1 (Agouron Pharmaceuticals, Inc., priority 1998, dated 2006):
Like-named read-outs stand apart in the source and are kept apart here.

Target: T1, mouse GnRH receptor (Mus musculus, UniProt Q01776)
T1 construct: expressed in transfected cells; host or cells: 293 cells
T1 sequence (Q01776 1-327): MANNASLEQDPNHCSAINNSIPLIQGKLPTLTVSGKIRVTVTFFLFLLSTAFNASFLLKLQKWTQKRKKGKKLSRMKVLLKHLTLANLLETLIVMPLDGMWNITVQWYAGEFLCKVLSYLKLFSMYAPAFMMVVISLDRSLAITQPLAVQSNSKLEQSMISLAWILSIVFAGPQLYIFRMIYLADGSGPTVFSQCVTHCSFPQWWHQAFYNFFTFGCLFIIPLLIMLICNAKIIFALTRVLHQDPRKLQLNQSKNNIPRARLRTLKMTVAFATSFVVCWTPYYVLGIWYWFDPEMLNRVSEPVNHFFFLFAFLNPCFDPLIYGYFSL
Assay: Radioligand binding, 125I-GnRH-A, 293 cells expressing mouse GnRH receptors
Settings: for inhibition at 10 µM: read-out: % Inhib. @ 10 uM mGnRH; for remaining activity at 10 µM: 1 h, substrate remaining, 10 uM compound, closer to zero = closer to 100% inhibition, read-out: S%R 10 uM mGnRHR
Outline: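 Bound label captured on 0.1% polyethyleneimine-treated GF/C filters, washed three times with PBS, counted. IC50 derived; identical set-up for every species.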

Row | Structure (SMILES) | inhibition at 10 µM (10 uM) [%] | remaining activity at 10 µM [%] | also measured
1 | CCC(O)CNC(=O)c1ccc(Cc2cc3c(cc2C)C(C)(C)CCC3(C)C)o1 (stereo not shown) [drawing 1537] | 99 | – | –
2 | COc1cccc(CCNC(=O)c2ccc(Cc3cc4c(cc3C)C(C)(C)CCC4(C)C)o2)c1 [Compound 495] | – | 4 | –
3 | COc1cc2c(cc1OC)C(CC#N)N(C(=O)c1ccc(Cc3cc4c(cc3C)C(C)(C)CCC4(C)C)o1)CC2 (stereo not shown) [Compound 614] | – | 48 | –
4 | Cc1cc2c(cc1Cc1ccc(C(=O)N3CCN(C(c4ccccc4)c4ccccc4)CC3)o1)C(C)(C)CCC2(C)C | 33 | – | –
5 | Cc1cc2c(cc1Cc1ccc(C(=O)N(CCC(c3ccccc3)c3ccccc3)Cc3ccco3)o1)C(C)(C)CCC2(C)C [drawing 1552] | 43 | – | –
6 | Cc1cc2c(cc1Cc1ccc(C(=O)NCc3ccc(S(N)(=O)=O)cc3)o1)C(C)(C)CCC2(C)C [Compound 521] | – | 51 | –
7 | COc1ccc(N2CCN(C(=O)c3ccc(Cc4cc5c(cc4C)C(C)(C)CCC5(C)C)o3)CC2C)cc1 (stereo not shown) | 73 | – | –
8 | Cc1cc2c(cc1Cc1ccc(C(=O)NC3CCCCC3O)o1)C(C)(C)CCC2(C)C (stereo not shown) [Compound 650] | – | 4 | –
9 | Cc1cc2c(cc1Cc1ccc(C(=O)NCCC3OCCO3)o1)C(C)(C)CCC2(C)C [Compound 676] | – | -4 | –
10 | Cc1cc2c(cc1Cc1ccc(C(=O)NC3CCS(=O)(=O)C3)o1)C(C)(C)CCC2(C)C (stereo not shown) [drawing 1508] | 90 | – | –
11 | Cc1cc2c(cc1Cc1ccc(C(=O)N[C@H]3CN4CCC3CC4)o1)C(C)(C)CCC2(C)C | – | – | inhibition at 10 µM: 12%
12 | CSCCCNC(=O)c1ccc(Cc2cc3c(cc2C)C(C)(C)CCC3(C)C)o1 [Compound 640] | – | 2 | –
13 | Cc1cc2c(cc1Cc1ccc(C(=O)N3CCN(c4cccc(C)c4C)CC3)o1)C(C)(C)CCC2(C)C [drawing 1468] | 58 | – | –
14 | CCOC(=O)CN(Cc1ccccc1)C(=O)c1ccc(Cc2cc3c(cc2C)C(C)(C)CCC3(C)C)o1 [Compound 536] | – | 38 | –
15 | Cc1cc2c(cc1Cc1ccc(C(=O)N(CCN3CCOCC3)Cc3ccccc3)o1)C(C)(C)CCC2(C)C [Compound 534] | – | 9 | –
16 | CC[C@H](C)C(CO)NC(=O)c1ccc(Cc2cc3c(cc2C)C(C)(C)CCC3(C)C)o1 (stereo partly shown) [Compound 683] | – | 23 | –
17 | CCN(C(=O)c1ccc(Cc2cc3c(cc2C)C(C)(C)CCC3(C)C)o1)C1C2CCC3CC32C1c1ccccc1 (stereo not shown) | 49 | – | –
18 | Cc1cc2c(cc1Cc1ccc(C(=O)N3CCCC3C)o1)C(C)(C)CCC2(C)C (stereo not shown) [drawing 1545] | 102 | – | –
19 | Cc1cc2c(cc1Cc1ccc(C(=O)NCCc3ccc(Br)cc3)o1)C(C)(C)CCC2(C)C [drawing 1371] | 47 | – | –
20 | Cc1cc2c(cc1Cc1ccc(C(=O)NC(CO)C(C)C)o1)C(C)(C)CCC2(C)C (stereo not shown) [Compound 574] | – | 13 | –
21 | Cc1cc2c(cc1Cc1ccc(C(=O)N3CCc4[nH]c5c(F)cccc5c4C3)o1)C(C)(C)CCC2(C)C | 46 | – | –
22 | Cc1cc2c(cc1Cc1ccc(C(=O)NCc3cccc4c3OC3C=CC=CC43)o1)C(C)(C)CCC2(C)C (stereo not shown) [Compound 518] | – | 56 | –
23 | CCN(Cc1ccc(C)cc1)C(=O)c1ccc(Cc2cc3c(cc2C)C(C)(C)CCC3(C)C)o1 [Compound 644] | – | 22 | –

Row | Structure (SMILES) | inhibition at 10 µM (10 uM) [%] | remaining activity at 10 µM [%] | also measured
24 | Cc1cc2c(cc1Cc1ccc(C(=O)N(CCN(C)C)Cc3cccc4ccccc34)o1)C(C)(C)CCC2(C)C [Compound 575] | – | -3 | –
25 | Cc1ccc(N2CCN(C(=O)c3ccc(Cc4cc5c(cc4C)C(C)(C)CCC5(C)C)o3)CC2C)cc1 (stereo not shown) [Compound 702] | – | 28 | –
26 | Cc1cc2c(cc1Cc1ccc(C(=O)N(C)CCC3OCCO3)o1)C(C)(C)CCC2(C)C [Compound 619] | – | 5 | –
27 | CCN(CC)CCCN(CCCN(CC)CC)C(=O)c1ccc(Cc2cc3c(cc2C)C(C)(C)CCC3(C)C)o1 | 69 | – | –
28 | Cc1cc2c(cc1Cc1ccc(C(=O)NC(C)CCCC(C)C)o1)C(C)(C)CCC2(C)C (stereo not shown) [drawing 1447] | 72 | – | –
29 | Cc1cc2c(cc1Cc1ccc(C(=O)N3CCN(CC(=O)N(C)c4ccccc4)CC3)o1)C(C)(C)CCC2(C)C | 103 | – | –
30 | Cc1cc2c(cc1Cc1ccc(C(=O)N3CCC(C(=O)c4ccc(F)cc4)CC3)o1)C(C)(C)CCC2(C)C [drawing 1467] | 63 | – | –
31 | CCCCN(C)C(=O)c1ccc(Cc2cc3c(cc2C)C(C)(C)CCC3(C)C)o1 [drawing 1548] | 100 | – | –
32 | Cc1cc2c(cc1Cc1ccc(C(=O)N3CCC3)o1)C(C)(C)CCC2(C)C | 63 | – | –
33 | Cc1ccc(N2CCN(C(=O)c3ccc(Cc4cc5c(cc4C)C(C)(C)CCC5(C)C)o3)CC2)c(C)c1 [drawing 1455] | 52 | – | –
34 | Cc1cc2c(cc1Cc1ccc(C(=O)N(Cc3c[nH]c4ccccc34)C3CCCCC3)o1)C(C)(C)CCC2(C)C | 27 | – | –
35 | Cc1cc2c(cc1Cc1ccc(C(=O)NCC(F)(F)F)o1)C(C)(C)CCC2(C)C [Compound 510] | – | 23 | –
36 | CCN(Cc1ccc(C)cc1)C(=O)c1ccc(Cc2cc3c(cc2C)C(C)(C)CCC3(C)C)o1 [drawing 1543] | 79 | – | –
37 | Cc1cc2c(cc1Cc1ccc(C(=O)NCCc3ccc(Cl)cc3)o1)C(C)(C)CCC2(C)C [drawing 1521] | 81 | – | –
38 | Cc1cc2c(cc1Cc1ccc(C(=O)NCCN3CCN(c4nccc(NCC5CCCO5)n4)CC3)o1)C(C)(C)CCC2(C)C (stereo not shown) | 96 | – | –
39 | Cc1cc2c(cc1Cc1ccc(C(=O)NCC3Nc4ccccc4N3)o1)C(C)(C)CCC2(C)C [Compound 529] | – | -3 | –
40 | COC(=O)C1SCCN1C(=O)c1ccc(Cc2cc3c(cc2C)C(C)(C)CCC3(C)C)o1 (stereo not shown) | 39 | – | –
41 | CCCN(CCc1ccccn1)C(=O)c1ccc(Cc2cc3c(cc2C)C(C)(C)CCC3(C)C)o1 [drawing 1297] | 100 | – | –
42 | Cc1cc2c(cc1Cc1ccc(C(=O)N3CCN(c4cccc(NCC5CCCO5)n4)CC3)o1)C(C)(C)CCC2(C)C (stereo not shown) [Compound 480] | – | -2 | –
43 | Cc1cc2c(cc1Cc1ccc(C(=O)N3CCN(CCCO)CC3)o1)C(C)(C)CCC2(C)C | 66 | – | –
44 | Cc1cc2c(cc1Cc1ccc(C(=O)NCCN3CCCC3)o1)C(C)(C)CCC2(C)C [Compound 515] | – | 11 | –
45 | Cc1cc2c(cc1Cc1ccc(C(=O)N(Cc3cccc(Oc4cccc(C(F)(F)F)c4)c3)CC(C)(C)CN(C)C)o1)C(C)(C)CCC2(C)C | 89 | – | –
46 | COC(CNC(=O)c1ccc(Cc2cc3c(cc2C)C(C)(C)CCC3(C)C)o1)OC [drawing 1505] | 103 | – | –

Row | Structure (SMILES) | inhibition at 10 µM (10 uM) [%] | remaining activity at 10 µM [%] | also measured
47 | Cc1cc2c(cc1Cc1ccc(C(=O)NC(C)c3ccc([N+](=O)[O-])cc3)o1)C(C)(C)CCC2(C)C (stereo not shown) [Compound 639] | – | 57 | –
48 | Cc1cc2c(cc1Cc1ccc(C(=O)N(Cc3ccccc3)[C@@H](C)c3ccccc3)o1)C(C)(C)CCC2(C)C [Compound 637] | – | 55 | –
49 | CCC(C)CNC(=O)c1ccc(Cc2cc3c(cc2C)C(C)(C)CCC3(C)C)o1 (stereo not shown) [Compound 568] | – | 28 | –
50 | Cc1cc2c(cc1Cc1ccc(C(=O)NCCCCCCO)o1)C(C)(C)CCC2(C)C [drawing 1550] | 103 | – | –
51 | Cc1cc2c(cc1Cc1ccc(C(=O)N3CCC(CNC(=O)C(F)(F)F)CC3)o1)C(C)(C)CCC2(C)C [drawing 1308] | 41 | – | –
52 | Cc1cc2c(cc1Cc1ccc(C(=O)N(C)CCC=C3c4ccccc4CCc4ccccc43)o1)C(C)(C)CCC2(C)C [Compound 535] | – | 43 | –
53 | COc1ccccc1N1CCN(C(=O)c2ccc(Cc3cc4c(cc3C)C(C)(C)CCC4(C)C)o2)CC1 [drawing 1421] | 73 | – | –
54 | Cc1cc2c(cc1Cc1ccc(C(=O)N3CCC[C@H]3CNc3ccccc3)o1)C(C)(C)CCC2(C)C [Compound 549] | – | 48 | –
55 | CCN1CC(N(Cc2ccc(N(C)C)cc2)C(=O)c2ccc(Cc3cc4c(cc3C)C(C)(C)CCC4(C)C)o2)CN1CC [drawing 1566] | 95 | – | –
56 | Cc1cc2c(cc1Cc1ccc(C(=O)N(CCCN3CCN(C)CC3)Cc3ccc(F)cc3)o1)C(C)(C)CCC2(C)C [drawing 1490] | 103 | – | –
57 | Cc1ccc(C(C)NC(=O)c2ccc(Cc3cc4c(cc3C)C(C)(C)CCC4(C)C)o2)cc1 (stereo not shown) | 97 | – | –
58 | Cc1cc2c(cc1Cc1ccc(C(=O)N[C@H]3CC[C@@H](O)CC3)o1)C(C)(C)CCC2(C)C | 82 | – | –
59 | Cc1cc2c(cc1Cc1ccc(C(=O)N3CCN(c4ccccc4O)CC3)o1)C(C)(C)CCC2(C)C | 36 | – | –
60 | Cc1cc2c(cc1Cc1ccc(C(=O)NCc3ccc(-c4csnn4)cc3)o1)C(C)(C)CCC2(C)C [Compound 478] | – | 3 | –
61 | Cc1cc2c(cc1Cc1ccc(C(=O)NCCc3ccc([N+](=O)[O-])cc3)o1)C(C)(C)CCC2(C)C [Compound 482] | – | 34 | –
62 | Cc1ccc(CN(CCCN2CCOCC2)C(=O)c2ccc(Cc3cc4c(cc3C)C(C)(C)CCC4(C)C)o2)cc1 | 103 | – | –
63 | Cc1cc2c(cc1Cc1ccc(C(=O)NCCC3CCCN3C)o1)C(C)(C)CCC2(C)C (stereo not shown) [Compound 456] | – | -12 | –
64 | CC(=O)NC1CCN(C(=O)c2ccc(Cc3cc4c(cc3C)C(C)(C)CCC4(C)C)o2)C1 (stereo not shown) | 63 | – | –
65 | Cc1cc2c(cc1Cc1ccc(C(=O)N3CCC(O)(c4ccccc4)CC3)o1)C(C)(C)CCC2(C)C | 72 | – | –
66 | Cc1cc2c(cc1Cc1ccc(C(=O)NCCc3ccc(N)cc3)o1)C(C)(C)CCC2(C)C [Compound 503] | – | -3 | –
67 | Cc1cc2c(cc1Cc1ccc(C(=O)N(C)CCC(O)c3ccccc3)o1)C(C)(C)CCC2(C)C (stereo not shown) | 99 | – | –
